Results taken from patent publication US20240317721A1, “PYRAZOLYL DERIVATIVES AS INHIBITORS OF THE KRAS MUTANT PROTEIN” (NOVARTIS AG, priority 2021, published 2024).
pIC50: −log10 of the molar value.

Biological target: KRasG12C (M1-K169, biotinylated on the N-terminus) (Homo sapiens (Human), UniProt P01116, G12C)
Experiment: Covalent competition assay: scintillation proximity assay (SPA) quantifying covalent modification of KRASG12C
Type: binding
Conditions: competition with radiolabeled covalent probe (Compound B/Compound A), 2 hours incubation, 10 nM KRasG12C
Protocol: Cells were harvested by centrifugation and frozen at −80° C. until further processing. […] The cells were lysed by 4 passages through an Avestin Emulsiflex at about 20000 psi and insoluble debris removed by centrifugation and filtered through a 0.45 µm Durapore membrane (Millipore). […] Eluted protein fractions were analyzed by Novex NuPage 4-12% PAGE. […] The protein in the flow through was subjected to a final polishing step on a HiLoad 16/60 Superdex 200 prep grade size-exclusion column pre-equilibrated with SEC-buffer (20 mM HEPES pH 7.4, 150 mM NaCl, 5 mM MgCl2, 1 µM GDP). Positive fractions were determined by PAGE (Novex NuPage 4-12% BisTris) analysis.
A scintillation proximity assay (SPA) was used to determine the potency of the compounds.
This assay measures the ability of the test compound to compete with the radiolabeled covalent probe for binding to and covalently modify KRASG12C.
(see above for synthesis of Compound A and Compound B). A serial dilution of the compounds to be tested is mixed with a fixed concentration of the radiolabeled covalent probe before incubation with KRASG12C:GDP as described below. KRASG12C can either be bound by the radiolabeled covalent probe (Compound B), resulting in light being emitted from the beads, or bound by covalent test compound preventing signal generation.
A 1/20 isotopic dilution of labeled (Compound B) and non-labeled covalent (Compound A) probe was prepared and added to all wells on the plate. The reaction was started by addition of KRasG12C (M1-K169, biotinylated on the N-terminus) to the compounds and incubated for 2 hours with continuous agitation allowing for full modification of KRasG12C with probe or test compounds. Final concentrations in an assay volume of 40 μL were 10 nM KRasG12C, 25 nM radio-ligand and 475 nM unlabelled ligand. The assay buffer contained 20 mM Tris-HCl pH 7.5 (Invitrogen), 150 mM NaCl (Sigma Aldrich), 0.1 mM MgCl2 (Sigma Aldrich), and 0.01% Tween-20 (Sigma Aldrich). Following addition of 50 μL of a 400 μg/mL suspension of streptavidin-coated YSi beads (Perkin Elmer), plates were incubated for a further 30 min with continuous agitation before reading the plates on a scintillation counter (Topcount NXT 384 (Packard).
Evaluation was carried out using assay data analysis software (such as the standard Novartis in-house Helios software application, Novartis Institutes for BioMedical Research, unpublished) using the methods described in Formenko et al., Robust Regression for high-throughput screening, Computer Methods and Programs in Biomedicine, 2006, 82, 31-37. Following normalization of activity values for the wells to % inhibition (% inhibition=[(high control−sample)/(high control−low control)]×100), IC50 fitting was carried out from the duplicate determinations present on each plate according to Formenko et al., 2006.
Evaluation can also be carried out using commercially available software which is designed to derive IC50 values using 4-parameter fits (e.g. GraphPad Prism, XL fit).

Row | pIC50 | Structure (SMILES)
1 | 6.22 | C=CC(=O)N1CC2(CC(n3cc(-c4c(Cl)c(C)cc5[nH]ncc45)c(N4CC[C@@H](CN5CCOCC5)CC4(C)C)n3)C2)C1 [Example 223, (R)-1-(6-(4-(5-chloro-6-methyl-1H-indazol-4-yl)-3-(2,2-dimethyl-4-(morpholinomethyl)piperidin-1-yl)-1H-pyrazol-1-yl)-2-azaspiro[3.3]heptan-2-yl)prop-2-en-1-one]
2 | 7.51 | C=CC(=O)N1CC2(CC(n3nc(N4CCC(O)(CN5CCOCC5)CC4(C)C)c(-c4c(Cl)c(Cl)cc5[nH]ncc45)c3C)C2)C1 (single isomer, unassigned) [Example 237b, 1-(6-(4-(5,6-dichloro-1H-indazol-4-yl)-3-(4-hydroxy-2,2-dimethyl-4-(morpholinomethyl)piperidin-1-yl)-5-methyl-1H-pyrazol-1-yl)-2-azaspiro[3.3]heptan-2-yl)prop-2-en-1-one]
3 | 5.85 | C=CC(=O)N1CC2(CC(n3nc(N4CC[C@@H](CN5CCN(C6COC6)CC5)CC4(C)C)c(-c4c(C)c(Cl)cc5[nH]ncc45)c3C)C2)C1 (single isomer, unassigned) [Example 244a]
4 | 7.35 | C=CC(=O)N1CC2(CC(n3nc(N4CCN(C5COC5)CC4(CC)CC)c(-c4c(Cl)c(C)cc5[nH]ncc45)c3C)C2)C1 (single isomer, unassigned) [Example 152b, 1-(6-(4-(5-chloro-6-methyl-1H-indazol-4-yl)-3-(2,2-diethyl-4-(oxetan-3-yl)piperazin-1-yl)-5-methyl-1H-pyrazol-1-yl)-2-azaspiro[3.3]heptan-2-yl)prop-2-en-1-one]
5 | 5.54 | C=CC(=O)N1CC2(CC(n3nc(N4CCN(C[C@@H]5COCCO5)C[C@]4(C)CC)c(-c4c(Cl)c(C)cc5[nH]ncc45)c3C)C2)C1 (single isomer, unassigned) [Example 173a]
6 | < 5.30 | C=CC(=O)N1CC2(CC(n3nc(N4CCCCC4(C)C)c(-c4c(Cl)c(C)cc5[nH]ncc45)c3C)C2)C1 (single isomer, unassigned) [Example 103a, 1-(6-(4-(5-chloro-6-methyl-1H-indazol-4-yl)-3-(2,2-dimethylpiperidin-1-yl)-5-methyl-1H-pyrazol-1-yl)-2-azaspiro[3.3]heptan-2-yl)prop-2-en-1-one]
7 | 6.86 | C=CC(=O)N1CC2(CC(n3nc(N4CCC(CN5C[C@@H]6OCCO[C@@H]6C5)CC4(C)C)c(-c4c(Cl)c(Cl)cc5[nH]ncc45)c3C)C2)C1 (single isomer, unassigned) [Example 232b]
8 | 8.00 | C=CC(=O)N1CC2(CC(n3nc(N4CC[C@@H](CN5CCN(CCOC)C(=O)C5)CC4(C)C)c(-c4c(Cl)c(Cl)cc5[nH]ncc45)c3C)C2)C1 (single isomer, unassigned) [Example 256b]
9 | 7.51 | C=CC(=O)N1CC2(CC(n3nc(N4CCN(CC(C)(C)O)CC45CCC5)c(-c4c(Cl)c(F)cc5[nH]ncc45)c3C)C2)C1 (single isomer, unassigned) [Example 167b, 1-(6-(4-(5-chloro-6-fluoro-1H-indazol-4-yl)-3-(8-(2-hydroxy-2-methylpropyl)-5,8-diazaspiro[3.5]nonan-5-yl)-5-methyl-1H-pyrazol-1-yl)-2-azaspiro[3.3]heptan-2-yl)prop-2-en-1-one]
10 | 6.39 | C=CC(=O)N1CC2(CC(n3nc(N4CC[C@@H](CN5CCC[C@H]5C(=O)N(C)C)CC4(C)C)c(-c4c(Cl)c(Cl)cc5[nH]ncc45)c3C)C2)C1 (single isomer, unassigned) [Example 313a]
11 | 5.30 | C=CC(=O)N1CC2(CC(n3nc(N4CC[C@@H](CN5CCOC[C@@H]5CO)CC4(C)C)c(-c4c(Cl)c(Cl)cc5[nH]ncc45)c3C)C2)C1 (single isomer, unassigned) [Example 303a]
12 | < 4.30 | C=CC(=O)N1CC2(CC(n3nc(N4CCN(C(C)=O)CC4)c(-c4c(Cl)ccc5[nH]ncc45)c3C)C2)C1C (single isomer, unassigned) [Example 197a, 1-(6-(3-(4-acetylpiperazin-1-yl)-4-(5-chloro-1H-indazol-4-yl)-5-methyl-1H-pyrazol-1-yl)-1-methyl-2-azaspiro[3.3]heptan-2-yl)prop-2-en-1-one]
13 | 8.05 | C=CC(=O)N1CC2(CC(n3nc(N4CC[C@@H](CN5CCN6C(=O)OCC6C5)CC4(C)C)c(-c4c(Cl)c(Cl)cc5[nH]ncc45)c3C)C2)C1 (single isomer, unassigned) [Example 312b]
14 | 6.48 | C=CC(=O)N1CC2(CC(n3nc(N4[C@@H](C)CN(C(C)=O)C[C@@H]4C)c(-c4c(Cl)c(C)cc5[nH]ncc45)c3C)C2)C1 (single isomer, unassigned) [Example 56b]
15 | 7.77 | C=CC(=O)N1C[C@]2(C[C@H](n3nc(N4CC[C@@H](CN5CCN(C6COC6)CC5)CC4(C)C)c(-c4c(Cl)c(Cl)cc5[nH]ncc45)c3C)C2)[C@H]1C (single isomer, unassigned) [Example 201b]
16 | 8.30 | C=CC(=O)N1CC2(CC(n3nc(N4CCN(C(COC)COC)C[C@]4(C)CC)c(-c4c(Cl)c(C)cc5[nH]ncc45)c3C)C2)C1 (single isomer, unassigned) [Example 187b]
17 | < 4.30 | C=CC(=O)N1CC2(CC(n3nc(N4CCc5nn(C)c(=O)cc5C4)c(-c4c(Cl)c(C)cc5[nH]ncc45)c3C)C2)C1 (single isomer, unassigned) [Example 40a, 6-(1-(2-acryloyl-2-azaspiro[3.3]heptan-6-yl)-4-(5-chloro-6-methyl-1H-indazol-4-yl)-5-methyl-1H-pyrazol-3-yl)-2-methyl-5,6,7,8-tetrahydropyrido[4,3-c]pyridazin-3(2H)-one]
18 | 5.68 | C=CC(=O)N1CC2(CC(n3nc(N4CC[C@@H](CN5CC6CCC(C5)O6)CC4(C)C)c(-c4c(Cl)c(Cl)cc5[nH]ncc45)c3C)C2)C1 (single isomer, unassigned) [Example 314a]
19 | 8.15 | C=CC(=O)N1CC2(CC(n3nc(N4CC[C@@H](CN5CC6(CCN(C(C)=O)C6)C5)CC4(C)C)c(-c4c(Cl)c(Cl)cc5[nH]ncc45)c3C)C2)C1 (single isomer, unassigned) [Example 268b]
20 | > 8.30 | C=CC(=O)N1CC2(CC(n3nc(N4CCN(C[C@@H]5COCCO5)C[C@]4(C)CC)c(-c4c(Cl)c(Cl)cc5[nH]ncc45)c3C)C2)C1 (single isomer, unassigned) [Example 89b]
21 | 6.47 | C=CC(=O)N1CC2(CC(n3nc(N4CCN(C5COC5)CC45CCC5)c(-c4c(Cl)c(C)cc5[nH]nc(N)c45)c3C)C2)C1 (single isomer, unassigned) [Example 114b, 1-(6-(4-(3-amino-5-chloro-6-methyl-1H-indazol-4-yl)-5-methyl-3-(8-(oxetan-3-yl)-5,8-diazaspiro[3.5]nonan-5-yl)-1H-pyrazol-1-yl)-2-azaspiro[3.3]heptan-2-yl)prop-2-en-1-one]
22 | 5.52 | [2H]C1([2H])OC([2H])([2H])C([2H])([2H])N(C[C@@H]2CCN(c3nn(C4CC5(C4)CN(C(=O)C=C)C5)c(C)c3-c3c(Cl)c(Cl)cc4[nH]ncc34)C(C)(C)C2)C1([2H])[2H] (single isomer, unassigned) [Example 283a]
23 | 5.92 | C=CC(=O)N1CC2(CC(n3nc(N4CCN(C(C)=O)CC4(C)C)c(-c4cc(O)cc5ccccc45)c3C)C2)C1 [Example 77, 1-(6-(3-(4-acetyl-2,2-dimethylpiperazin-1-yl)-4-(3-hydroxynaphthalen-1-yl)-5-methyl-1H-pyrazol-1-yl)-2-azaspiro[3.3]heptan-2-yl)prop-2-en-1-one]
24 | 5.57 | C=CC(=O)N1CC2(CC(n3nc(N4CC[C@@H](CN5CCN(C(C)=O)CC5)CC4(C)C)c(-c4c(Cl)c(Cl)cc5[nH]ncc45)c3C)C2)C1 (single isomer, unassigned) [Example 319a]
25 | 6.53 | C=CC(=O)N1CC2(CC(n3nc(N4CCN(C5COC5)C[C@@]4(C)COC)c(-c4c(Cl)c(C)cc5[nH]ncc45)c3C)C2)C1 (single isomer, unassigned) [Example 148b]
26 | < 5.30 | C=CC(=O)N1CC2(CC(n3nc(N4CC[C@@H](CN5CCOCC5)CC4(C)C)c(-c4c(Cl)c(C)cc5[nH]nc(C)c45)c3C#N)C2)C1 (single isomer, unassigned) [Example 225b]

Row | Structure (SMILES) | pIC50
27 | C=CC(=O)N1CC2(CC(n3nc(N4CCC(N5C6CCC5COC6)CC4(C)C)c(-c4c(Cl)c(C)cc5[nH]ncc45)c3C)C2)C1 (single isomer, unassigned) [Example 74b] | 7.59
